Several values for one entry are separate records, joined by “and”; a condition that tells them apart may be missing. Equal entries are not always repeated. Marks after values point to notes of the source that are not given here.
Key:
[1] = male, human, in vivo, 5 days
[2] = system: CYP2C19; parameters: method as in GW unpublished data; settings: one range printed for CYP3A4 and CYP2C19; ref GW unpublished data; read-out: IC50, inhibitory effect on CYP2C19; cited from earlier work
[3] = Peak plasma concentration of CBD in normal dosing
Text: However, to investigate the potential interactions of THC and CBD with drugs which also interact with the CYP450s CYP3A4 and CYP2C19, various known inducers/inhibitors of these isoenzymes were employed and the pharmacokinetics (PKs) of their co-administration with THC/CBD spray evaluated.

[4] = Phase I drug-drug interaction PK, Group 1: THC/CBD spray alone or with rifampicin, plasma by GC-MS; parameters: k el / half-life: dose or concentration left out as unconfirmed; settings: for CL/F / Varea/F: n = 12, mean (SD)
Method: (§1) Subjects received rifampicin on Days 1-9. […] Subjects received ketoconazole on Days 1-4.
(§2) Blood samples were collected at specified times and stored on ice (except rifampicin PK samples which were stored in iced water) prior to processing and storage. Plasma samples were separated by centrifugation (approximately 2500 rpm × 15 minutes at 4°C). Samples were stored in 4 mL amber glass screw top glass vials with PTFE lined screw caps labelled with Guys Drug Research (Quintiles Limited) labels. The aliquots were stored in clearly labelled containers in a freezer set at or below -20°C, until shipped for assay. Samples were shipped on dry ice at the appropriate time-points.
(§3) The assay validation was undertaken by Advanced Bioanalytical Service Laboratories (London, UK), who developed the technique after reviewing the literature, which was based on the methodology adopted by three different groups (Foltz et al. [1983]; Goodall & Basteyns [1995]; Kemp et al. [1995]), and designed with reference to FDA guidelines for industry (FDA Guidance for Industry [2012]). The method utilised protein precipitation, solvent extraction and derivatisation for the sample preparation and then sample analysis by capillary gas chromatography and detection by a mass spectrometer (GC-MS). The validation procedure investigated the calibration model with the best regression fit over the concentration range 0.1 - 100 ng/mL for CBD, THC and 11-OH-THC, as well as precision and accuracy of the method, stability, carry-over, and specificity.
(§4) Human plasma from healthy volunteers was used to prepare the standards and quality control (QC) samples, with analytes extracted using hexane/ethyl acetate (7:1 ratio), derivatised with N,O-Bis(trimethylsilyl)trifluoroacetamide. Analytic grade THC (Sigma, UK), CBD (Sigma, UK) and 11-OH-THC (Radian International and Cerillant, UK) were obtained, and three sets of CBD, THC and 11-OH-THC were used to support the study. Deuterated THC-d3 (Sigma, UK) was used as the internal standard. The GC-MS equipment was a Hewlett Packard 6890 Gas Chromatograph attached to a Hewlett Packard 5973 Mass Selective Detector. Data handling was carried out using an MS Chemstation System and the peak area ratio of the analytes to the internal standard was calculated in Excel (2000). The concentrations were calculated from the ratio data using least squares ln(y) on ln(x) regression performed in Excel (2000), and were then checked manually. Regression analysis was undertaken to find the regression model that best described the calibration data (for details, see ([Miller & Miller 1992])).
(§5) A 0.5 mL aliquot of test sample, QC or blank plasma was placed into a test tube. The blank plasma was spiked with 50 μL of the appropriate standard solution to produce the calibration standards. 50 μL of the internal standard was added to each test tube. The samples were then diluted by the addition of 500 μL of 0.1% (w/v) ascorbic acid and the protein precipitated by the addition of 1.0 mL of acetonitrile. The proteins were removed by centrifugation and the supernatant concentrated to 1 mL using nitrogen at 50 °C. The samples were then basified by the addition of 300 μL of 5M sodium hydroxide and the analytes extracted by the addition of 2.0 mL of 7:1 hexane:ethyl acetate. After mixing for 16 minutes the tubes were centrifuged and the top layer transferred into clean 3 dram vials. The solvent was removed using nitrogen at 70 °C and the dried extract resuspended in 100 μL of BSTFA and transferred to microvials, capped and placed at 70 °C for 30 minutes to derivatise the analytes. The microvials were then cooled and loaded onto the autosampler tray for analysis where 1 μL was injected onto the GC-MS system.

[5] = system: CYP3A4; parameters: method as in GW unpublished data; settings: one range printed for CYP3A4 and CYP2C19; ref GW unpublished data; read-out: IC50, inhibitory effect on CYP3A4; cited from earlier work
[6] = Phase I drug-drug interaction PK, Group 3: THC/CBD spray alone or with omeprazole, plasma by GC-MS; settings: for CL/F / Varea/F: n = 12, mean (SD); for Cmax and AUC % Co-efficient of Variation (CV%) range: inter-subject variability
Method: as §1, §2, §3, §4, §5

[7] = Phase I drug-drug interaction PK, Group 2: THC/CBD spray alone or with ketoconazole, plasma by GC-MS; parameters: k el: dose or concentration left out as unconfirmed; settings: for CL/F / Varea/F: mean (SD)
Method: as §1, §2, §3, §4, §5

[8] = in normal dosing; approximately; no reference given; cited from earlier work
[9] = Rifampicin and THC/CBD spray vs THC/CBD spray alone, no-interaction range 0.80 to 1.25
[10] = THC/CBD spray 4 sprays and rifampicin 600 mg after repeated daily dosing, plasma
[11] = THC/CBD spray alone, single dose 4 sprays (10.8/10 mg), rifampicin group, plasma
[12] = THC/CBD spray co-administered with rifampicin vs alone
[13] = Omeprazole and THC/CBD spray vs THC/CBD spray alone, no-interaction range 0.80 to 1.25
[14] = THC/CBD spray 4 sprays and omeprazole 40 mg at end of 6-day dosing period, plasma
[15] = THC/CBD spray alone, single dose 4 sprays (10.8/10 mg), omeprazole group, plasma
[16] = THC/CBD spray co-administered with omeprazole vs alone
[17] = male, human, plasma, oral, 40 mg
[18] = Ketoconazole and THC/CBD spray vs THC/CBD spray alone, no-interaction range 0.80 to 1.25
[19] = THC/CBD spray 4 sprays and ketoconazole 400 mg at end of 5-day dosing period, n = 11, plasma
[20] = THC/CBD spray alone, single dose 4 sprays (10.8/10 mg), ketoconazole group, n = 12, plasma
[21] = THC/CBD spray co-administered with ketoconazole vs alone

## COc1ccc2[nH]c([S+]([O-])Cc3ncc(C)c(OC)c3C)nc2c1 (stereo not drawn) [Omeprazole, omeprazole]
[1]
  Dizziness (TEAE): 0 No. of subjects (%)
  Dizziness postural (TEAE): 0 No. of subjects (%)
  Dry mouth (TEAE): 0 No. of subjects (%)
  Headache (TEAE): 1 (8) No. of subjects (%)
  Somnolence (TEAE): 0 No. of subjects (%)

## C=C(C)[C@@H]1CCC(C)=C[C@H]1c1c(O)cc(CCCCC)cc1O [CBD, cannabidiol]
[2]
  IC50: […]
[3]
  Peak plasma concentration, fold lower than the levels at which CYP inhibition may be anticipated: […]
[4]; [9]
  Geometric mean ratio of AUC(0-inf), point estimate: […]
  Geometric mean ratio of AUC(0-t), point estimate: […]
  Geometric mean ratio of Cmax, point estimate: […]
[4]; [10]
  CL/F: […]
  Varea/F: […]
[4]; [11]
  CL/F: […]
  Varea/F: […]
[4]; [12]
  % change in mean t1/2: […]
  % change in median Tmax: […]
[4]; THC/CBD spray with rifampicin vs THC/CBD spray alone
  Change in mean Cmax: […]
[4]; after multiple dose rifampicin treatment vs THC/CBD spray alone
  Change in mean CL/F: +112%
[4]; male, human, plasma
  AUC(0-inf): […]
  AUC(0-t): […]
  Cmax: […]
  Tmax: […]
  half-life: […]
  k el: […]
[4]; male, human, plasma, oral
  Tmax: […]
  half-life: […]
[5]
  IC50: […]
[6]; [13]
  Geometric mean ratio of AUC(0-inf), point estimate: […]
  Geometric mean ratio of AUC(0-t), point estimate: […]
  Geometric mean ratio of Cmax, point estimate: […]
[6]; [14]
  CL/F: […]
  Varea/F: […]
[6]; [15]
  CL/F: […]
  Varea/F: […]
[6]; THC/CBD spray at end of 6-day omeprazole dosing
  Plasma concentrations and PK parameters compared with THC/CBD spray alone: […]
[6]; [16]
  % change in Tmax: […]
  % change in t1/2: […]
[6]; THC/CBD spray with omeprazole vs alone
  Differences in CL/F on co-administration with omeprazole: […]
[6]; at the clinically relevant dose of THC/CBD spray investigated
  Substrate for the isoenzyme CYP2C19 (conclusion from omeprazole interaction): not substrates
[6]; THC/CBD spray alone, omeprazole group
  Cmax and AUC % Co-efficient of Variation (CV%) range: […]
[6]; THC/CBD spray in combination with omeprazole
  Cmax and AUC % Co-efficient of Variation (CV%) range: […]
[6]; male, human, plasma, oral
  Tmax: […]
  half-life: […]
[6]; [17]
  Cmax: 0.73 ng/mL
[7]; [18]
  Geometric mean ratio of AUC(0-inf), point estimate: […]
  Geometric mean ratio of AUC(0-t), point estimate: […]
  Geometric mean ratio of Cmax, point estimate: […]
[7]; [19]
  CL/F: […]
  Varea/F: […]
[7]; [20]
  CL/F: […]
  Varea/F: […]
[7]; [21]
  % change in mean Tmax: […]
  % change in t1/2: […]
[7]; THC/CBD spray with ketoconazole vs THC/CBD spray alone
  Change in mean Cmax: […]
[7]; co-administered with ketoconazole vs THC/CBD spray alone
  Change in mean CL/F: […]
[7]; male, human, plasma, oral
  AUC(0-inf): […]
  AUC(0-t): […]
  Cmax: […]
  k el: […]
[7]; suggested by increased exposure with ketoconazole
  Substrate for the isoenzyme CYP3A4 (conclusion from ketoconazole interaction): substrates
[8]
  Peak plasma concentrations: […]
